Experimental data as given in US20080045796A1, “HISTOFLUORESCENT STAIN COMPOSITION FOR ENDOSCOPY” (PENTAX CORPORATION, priority 2006, published 2008).

Assays:
[1] = system: large intestine of a mouse; experiment: Stainability: stain solution injected into large intestine, confocal cross-section of the lumen; details: 1.0 mg/mL, pH 6, 100 μL injected; images at every 5.0 μm from the luminal surface
Protocol: Fast Green FCF was prepared to 1.0 mg/mL using a 0.1 M sodium phosphate buffer solution (pH 6), and 100 μL of the stain solution was injected into the large intestine of a mouse (ddY, 11 weeks old, male). To stain the large intestine evenly while preventing outflow of the stain, the mouse was subjected to laparotomy, and the stain was injected while clipping the upward colon side and the downward colon side of the extracted large intestine with hemostatic clips.
The imaging conditions were such that the diameter of the confocal pinhole was 1.00 airy, and a lens of 20 magnifications was used.

Duodenum = experiment: Tail vein administration, stainability for different regions: duodenum; type: in vivo, mouse
Protocol: (§1) An evaluation of the tissue stain composition of the present invention was performed for the stainability for different regions. Duodenum, large intestine and liver were extracted and observed.
(§2) Fast Green FCF was prepared to 10 mg/mL using physiological saline at pH 6.0. 100 μL of the prepared Fast Green FCF was administered to a mouse (ddY, 11 weeks old, male) through the tail vein, and the mouse was subjected to laparotomy after 5 minutes. The penetrability was observed by naked eyes, and the stainability and fluorescence were observed using a confocal microscope (Leica Microsystems Corp., TCP-SP2).
The conditions for the confocal microscopic observation were such that the diameter of the confocal pinhole was 1.00 airy, and an oil immersion lens of 63 magnifications was used.

mouse large intestine = experiment: Confocal microscope observation of extracted large intestine piece stained with the stain (stain specificity)
Protocol: In order to find the stain specificity of the stain, Fast Green FCF (Wako Pure Chemical Industries, Ltd.) was diluted to a 2.0 mg/mL preparation using a 0.1 M sodium phosphate buffer solution (pH 7), and observation was performed using a confocal microscope (Leica Microsystems Corp., TCS-SP2).
For the sample, a mouse was subjected to laparotomy to extract the large intestine, which was then cut into a piece of 1 cm at every edge and stained with the stain.
The diameter of the confocal pinhole was 1.00 airy, and an oil immersion lens of 63 magnifications was used.
Staining was performed by immersion in the same manner as in Example 2, excitation was induced at a wavelength of 488 nm, and the fluorescent images were observed.
The conditions for the confocal microscope were the same, except for the wavelength of the irradiated laser.

[2] = system: large intestine extracted from a mouse; experiment: Stainability and tissue penetrability, fluorescence observation of frozen sections; details: 6 μm frozen sections, stained as in Example 3
From the text: The stainability and tissue penetrability of Fast Green FCF (Fast Green GCF, Wako Pure Chemical Industries, Ltd.) were checked by observation of a tissue specimen.
A tissue specimen of the large intestine extracted from a mouse, which had been stained in the same manner as in Example 3, was embedded in an OCT Compound (Sakura Finetek Corp., Tissue-Tek O.C.T. compound), and was frozen by rapidly cooling with dry ice. The frozen section was sliced into 6 μm to prepare frozen sections, and fluorescence observation was performed. The fluorescence observation was performed using a confocal microscope (Leica Microsystems Corp., TCP-SP2) (imaging conditions: using a lens of 40 magnifications, pinhole diameter 171.3 μm).
A tissue section which was similarly embedded in the OCT compound was HE-stained, and the observation result is shown in FIG. 9 as a Comparative Example.

[3] = Measurement of absorption spectrum and fluorescence excitation spectrum; type: physicochemical
Protocol: Measurement of an absorption spectrum and a fluorescence excitation spectrum of Fast Green FCF was performed. The Fast Green FCF (Wako Pure Chemical Industries, Ltd.) was adjusted to 1.0 mg/ml, and the light absorbance was continuously measured at a wavelength of from 200 to 750 nm using a spectrophotometer (manufactured by Shimadzu Corp., BioSpec-1600) to determine the wavelength at which the absorbance reached the maximum. The maximum absorption wavelength of 628 nm thus obtained was irradiated as an excitation wavelength, and the wavelength of the scattered light detected in the perpendicular direction to the light axis of the excitation light was measured using a fluorescence spectrophotometer (manufactured by Shimadzu Corp., RF-1500), thus to obtain a maximum excitation wavelength of 628 nm and a maximum fluorescence wavelength of 652 nm.

large intestine = experiment: Tail vein administration, stainability for different regions: large intestine; type: in vivo, mouse; details: 10 mg/mL, 100 μL tail vein, laparotomy after 5 minutes
Protocol: as §1, §2
(§3) The conditions for the confocal microscopic observation were such that the diameter of the confocal pinhole was 1.00 airy, and a cross-sectional image of an area about 10 μm deep from the luminal surface, which image was taken using an oil immersion lens of 63 magnifications, is presented in FIG. 11.

[4] = system: tumor tissue developed in the upper part of the ovary of a rat; experiment: Extracted tumor tissue immersed in stain, confocal microscope observation (single and double staining)
Protocol: Fast Green FCF was prepared to 1.0 mg/mL using a 0.1 M sodium phosphate buffer solution (pH 7).
The tumor tissue of the rat was extracted and immersed in the prepared stain for 5 minutes to stain the tissue. The remaining unpenetrated portion of the Fast Green was washed off with a 0.1 M sodium phosphate buffer solution (pH 6), and observation was made using a confocal microscope.
The observation conditions were such that the pinhole diameter was 1.00 airy, and an oil immersion lens of 63 magnifications was used.
To verify the stainability at a tumor part, Monascus Yellow was used together with Fast Green FCF to perform double staining. The Monascus Yellow was prepared to 1.0 mg/mL using a 0.1 M sodium phosphate buffer solution (pH 6).

liver = experiment: Tail vein administration, stainability for different regions: liver; type: in vivo, mouse
Protocol: as §1, §2
as §3, with “Furthermore, the surrounding septum was more strongly stained. The” for “The”, “area” for “area about”, “12.” for “11.”

[5] = 10 mg/mL, 100 μL tail vein, laparotomy after 5 minutes

Compound: CCN(Cc1cccc(S(=O)(=O)[O-])c1)c1ccc(C(=C2C=CC(=[N+](CC)Cc3cccc(S(=O)(=O)[O-])c3)C=C2)c2ccc(O)cc2S(=O)(=O)[O-])cc1.[Na+].[Na+] [Fast Green FCF]
- fluorescent contrast in confocal cross-sectional images [1]: provides good fluorescent contrast for the lamina propria mucosae
- staining site under confocal microscope (Duodenum; [5]): Strong staining was achieved not in the cytoplasm but in the cellular membrane or intercellular space
- staining visible by naked eyes (Duodenum; [5]): stained in deep-green color to an extent of being clearly visible by naked eyes
- fluorescent contrast under a confocal microscope (Duodenum; epithelial cells): provides clear fluorescent contrast for the shape of the epithelial cells
- contrast under a white light source (Duodenum; small intestinal villi): conferred contrast such that observation of the small intestinal villi under a white light source became feasible
- fluorescent contrast in confocal image (mouse large intestine; 2.0 mg/mL, pH 7, He-Ne laser 633 nm, fluorescence 650 to 750 nm): provided fluorescent contrast to the images of the intercellular space of the mucosal epithelium of the large intestine
- chromophilic regions, Fast Green FCF versus Fluorescite (mouse large intestine; Fluorescite excited at 488 nm, single and double-stained images): the stain and Fluorescite had different chromophilic regions
- fluorescent contrast in frozen section, compared with HE staining [2]: provided good fluorescent contrast for the lamina propria mucosae
- can be excited at, for example [3]: 628 nm
- fluorescence detected at [3]: 652 nm
- maximum absorption wavelength ([3]; 1.0 mg/ml, spectrophotometer 200 to 750 nm): 628 nm
- maximum excitation wavelength ([3]; fluorescence spectrophotometer): 628 nm
- maximum fluorescence wavelength ([3]; fluorescence spectrophotometer): 652 nm
- color change visible by naked eyes (large intestine): did not show color changes that were clear enough to be visible by naked eyes
- penetration of the dye (large intestine): the dye penetrated sufficiently to the extent that imaging by a confocal imaging system was possible
- staining site under confocal microscope (large intestine): The intercellular space near the luminal surface, and the lamina propria mucosae were well stained
- fluorescent contrast in confocal images ([4]; 1.0 mg/mL, pH 7, immersed 5 minutes): provided good fluorescent contrast for the connective tissue fibers in the tumor tissue
- staining site in double staining ([4]; Monascus Yellow 1.0 mg/mL pH 6 together with Fast Green FCF): slightly stained the cells but more strongly stained the fibrous part
- staining site under confocal microscope (liver; [5]): not only the intercellular space and cellular membrane as observed in the duodenum or large intestine but also the lobular parts were stained
- fluorescent contrast under confocal microscope (liver; connective tissue in the liver): provided good contrast for the Glisson's capsule
